Test results taken from ChEMBL document CHEMBL3875182 (Bioorg Med Chem, 2017).
≈ marks a conversion by molar mass, not a printed value.

Assays:
[1] = system: Mycobacterium tuberculosis; experiment: Antibacterial activity against isoniazid/rifampin-resistant Mycobacterium tuberculosis after 8 to 9 days by BacT/Alert MP bottle assay; type: functional
[2] = system: Mycobacterium tuberculosis; experiment: Antibacterial activity against rifampin-resistant Mycobacterium tuberculosis after 8 to 9 days by BacT/Alert MP bottle assay; type: functional

Row | Structure (SMILES) | MIC [1] | MIC [2]
1 | COc1ccc(C2=Nn3c(nnc3-c3ccncc3)SC2)cc1 | 4 µg/mL (≈ 12.4 µM) | 2 µg/mL (≈ 6.18 µM)
2 | O=[N+]([O-])c1ccc(C2=Nn3c(nnc3-c3ccc(Br)cc3)SC2)cc1 | 2 µg/mL (≈ 4.8 µM) | 0.25 µg/mL (≈ 0.601 µM)
3 | c1ccc(C2=Nn3c(nnc3-c3ccccc3)SC2)cc1 | 4 µg/mL (≈ 13.7 µM) | 2 µg/mL (≈ 6.84 µM)
4 | O=[N+]([O-])c1ccc(C2=Nn3c(Cc4ccc5ccccc5c4)nnc3SC2)cc1 | 4 µg/mL (≈ 9.96 µM) | 4 µg/mL (≈ 9.96 µM)
5 | O=[N+]([O-])c1ccc(C2=Nn3c(nnc3-c3ccncc3F)SC2)cc1 | 4 µg/mL (≈ 11.2 µM) | 2 µg/mL (≈ 5.61 µM)
6 | Fc1ccc(-c2nnc3sc(COc4ccccc4)nn23)cc1 | 8 µg/mL (≈ 24.5 µM) | 8 µg/mL (≈ 24.5 µM)
7 | Brc1ccc(-c2nnc3n2N=C(c2ccccc2)CS3)cc1 | 2 µg/mL (≈ 5.39 µM) | 1 µg/mL (≈ 2.69 µM)
8 | NNC(=O)c1ccncc1 [ISONIAZID] | 4 µg/mL (≈ 29.2 µM) | 1 µg/mL (≈ 7.29 µM)
9 | CO[C@H]1/C=C/O[C@@]2(C)Oc3c(C)c(O)c4c(O)c(c(/C=N/N5CCN(C)CC5)c(O)c4c3C2=O)NC(=O)/C(C)=C\C=C\[C@H](C)[C@H](O)[C@@H](C)[C@@H](O)[C@@H](C)[C@H](OC(C)=O)[C@@H]1C [RIFAMPIN] | ≥ 16 µg/mL | 16 µg/mL (≈ 19.4 µM)
